ChEMBL document CHEMBL3044921, “Synthesis, characterization, and SAR studies of new (1H-indol-3-yl)alkyl-3-(1H-indol-3-yl)propanamide derivatives as possible antimicrobial and antitubercular agents” (2013)
Values after ≈ are worked out from the molar mass of the structure shown.

Tests used:
[1] = system: Talaromyces marneffei; test: Antifungal activity against Talaromyces marneffei assessed as growth inhibition at […] to […] ug/ml after 3 to 4 days by agar well diffusion method; format: functional
[2] = system: Aspergillus fumigatus; test: Antifungal activity against Aspergillus fumigatus NCIM 902 assessed as growth inhibition at […] to […] ug/ml after 3 to 4 days by agar well diffusion method; format: functional
[3] = system: Aspergillus flavus; test: Antifungal activity against Aspergillus flavus NCIM 524 assessed as growth inhibition at […] to […] ug/ml after 3 to 4 days by agar well diffusion method; format: functional
[4] = system: Candida albicans; test: Antifungal activity against Candida albicans assessed as growth inhibition after 3 to 4 days by serial plate dilution method; format: functional
[5] = system: Trichophyton mentagrophytes; test: Antifungal activity against Trichophyton mentagrophytes assessed as growth inhibition after 3 to 4 days by serial plate dilution method; format: functional
[6] = system: Talaromyces marneffei; test: Antifungal activity against Talaromyces marneffei assessed as growth inhibition after 3 to 4 days by serial plate dilution method; format: functional
[7] = system: Aspergillus fumigatus; test: Antifungal activity against Aspergillus fumigatus NCIM 902 assessed as growth inhibition after 3 to 4 days by serial plate dilution method; format: functional
[8] = system: Aspergillus flavus; test: Antifungal activity against Aspergillus flavus NCIM 524 assessed as growth inhibition after 3 to 4 days by serial plate dilution method; format: functional
[9] = system: Streptococcus pyogenes; format: functional
Description: Antibacterial activity against Streptococcus pyogenes assessed as growth inhibition at 1.56 to 25 ug/ml after 3 to 4 days by agar well diffusion method

[10] = system: Klebsiella pneumoniae; format: functional
Description: Antibacterial activity against Klebsiella pneumoniae assessed as growth inhibition at 1.56 to 25 ug/ml after 3 to 4 days by agar well diffusion method

[11] = system: Pseudomonas aeruginosa; format: functional, ATCC 27853
Description: Antibacterial activity against Pseudomonas aeruginosa ATCC 27853 assessed as growth inhibition at 1.56 to 25 ug/ml after 3 to 4 days by agar well diffusion method

[12] = system: Staphylococcus aureus; format: functional, ATCC 25923
Description: Antibacterial activity against Staphylococcus aureus ATCC 25923 assessed as growth inhibition at 1.56 to 25 ug/ml after 3 to 4 days by agar well diffusion method

[13] = system: Streptococcus pyogenes; test: Antibacterial activity against Streptococcus pyogenes assessed as growth inhibition after 16 to 18 hr by serial plate dilution method; format: functional
[14] = system: Mycolicibacterium smegmatis; test: Antitubercular activity against Mycobacterium smegmatis ATCC 19420 assessed as growth inhibition at 1 to 100 ug/mL after 7 days by resazurin reduction test; format: functional; details: ATCC 19420, 168 h
[15] = system: Mycolicibacterium fortuitum; test: Antitubercular activity against Mycobacterium fortuitum ATCC 19542 assessed as growth inhibition at 1 to 100 ug/mL after 7 days by resazurin reduction test; format: functional; details: ATCC 19542, 168 h
[16] = system: Mycobacterium tuberculosis; test: Antitubercular activity against Mycobacterium tuberculosis H37Rv ATCC 27294 assessed as growth inhibition at 1 to 100 ug/mL after 7 days by resazurin reduction test; format: functional; details: for MIC: Mycobacterium tuberculosis, H37Rv ATCC 27294, 168 h
[17] = system: Candida albicans; test: Antifungal activity against Candida albicans assessed as growth inhibition at […] to […] ug/ml after 3 to 4 days by agar well diffusion method; format: functional
[18] = system: Trichophyton mentagrophytes; test: Antifungal activity against Trichophyton mentagrophytes assessed as growth inhibition at […] to […] ug/ml after 3 to 4 days by agar well diffusion method; format: functional
[19] = system: Klebsiella pneumoniae; test: Antibacterial activity against Klebsiella pneumoniae assessed as growth inhibition after 16 to 18 hr by serial plate dilution method; format: functional
[20] = system: Pseudomonas aeruginosa; test: Antibacterial activity against Pseudomonas aeruginosa ATCC 27853 assessed as growth inhibition after 16 to 18 hr by serial plate dilution method; format: functional
[21] = system: Escherichia coli; test: Antibacterial activity against Escherichia coli […] assessed as growth inhibition after 16 to 18 hr by serial plate dilution method; format: functional
[22] = system: Staphylococcus aureus; test: Antibacterial activity against Staphylococcus aureus ATCC 25923 assessed as growth inhibition after 16 to 18 hr by serial plate dilution method; format: functional
[23] = system: Escherichia coli; format: functional, ATCC 24922
Description: Antibacterial activity against Escherichia coli ATCC 24922 assessed as growth inhibition at 1.56 to 25 ug/ml after 3 to 4 days by agar well diffusion method

[24] = system: Mycolicibacterium fortuitum; test: Antitubercular activity against Mycobacterium fortuitum ATCC 19542 assessed as growth inhibition at 0.3125 to 5 ug/mL after 7 days by resazurin reduction test; format: functional; details: ATCC 19542, 168 h
[25] = system: Mycobacterium tuberculosis; test: Antitubercular activity against Mycobacterium tuberculosis H37Rv ATCC 27294 assessed as growth inhibition at 0.3125 to 5 ug/mL after 7 days by resazurin reduction test; format: functional; details: H37Rv ATCC 27294, 168 h

| SMILES | diameter of the inhibition zone (DIZ) [1] [mm] | diameter of the inhibition zone (DIZ) [2] [mm] | diameter of the inhibition zone (DIZ) [3] [mm] | MIC [4] [µg/mL] | MIC [5] [µg/mL] | MIC [6] [µg/mL] | MIC [7] [µg/mL] | MIC [8] [µg/mL] | diameter of the inhibition zone (DIZ) [9] [mm] | diameter of the inhibition zone (DIZ) [10] [mm] | diameter of the inhibition zone (DIZ) [11] [mm] | diameter of the inhibition zone (DIZ) [12] [mm] | MIC [13] [µg/mL] | MIC [14] [µg/mL] | MIC [15] [µg/mL] | growth inhibition (GI) [16] [%] | MIC [16] [µg/mL] | diameter of the inhibition zone (DIZ) [17] [mm] | diameter of the inhibition zone (DIZ) [18] [mm] | MIC [19] [µg/mL] | also measured |
| --- | --- | --- | --- | --- | --- | --- | --- | --- | --- | --- | --- | --- | --- | --- | --- | --- | --- | --- | --- | --- | --- |
| O=C(CCc1c[nH]c2ccc(Cl)cc12)NCCCc1c[nH]c2ccc(Cl)cc12 | 16 | 16 | 16 | 6.25 (≈ 15.1 µM) | 6.25 (≈ 15.1 µM) | 6.25 (≈ 15.1 µM) | 6.25 (≈ 15.1 µM) | 6.25 (≈ 15.1 µM) | 16 | <10 | <10 | <10 | 6.25 (≈ 15.1 µM) | > 100 | > 100 | 0 | > 100 | 16 | 16 | 25 (≈ 60.3 µM) | MIC [20]: 25 µg/mL (≈ 60.3 µM); MIC [21]: 25 µg/mL (≈ 60.3 µM); MIC [22]: 25 µg/mL (≈ 60.3 µM); diameter of the inhibition zone (DIZ) [23]: <10 mm |
| Cc1c(CCCNC(=O)CCc2c[nH]c3ccc(Cl)cc23)c2cc(OC(F)(F)F)ccc2n1C | 16 | <10 | 16 | 12.5 (≈ 25.4 µM) | 25 (≈ 50.8 µM) | 6.25 (≈ 12.7 µM) | 25 (≈ 50.8 µM) | 6.25 (≈ 12.7 µM) | 16 | 11 | <10 | 11 | 6.25 (≈ 12.7 µM) | > 100 | 10 (≈ 20.3 µM) | 90 | 10 (≈ 20.3 µM) | 11 | <10 | 12.5 (≈ 25.4 µM) | MIC [24]: 10 µg/mL (≈ 20.3 µM); MIC [25]: 10 µg/mL (≈ 20.3 µM); MIC [20]: 25 µg/mL (≈ 50.8 µM); MIC [21]: 12.5 µg/mL (≈ 25.4 µM); MIC [22]: 12.5 µg/mL (≈ 25.4 µM); diameter of the inhibition zone (DIZ) [23]: 11 mm |
| O=C(CCc1c[nH]c2ccc(Cl)cc12)NCCCc1c[nH]c2ccc(OC(F)(F)F)cc12 | <10 | <10 | <10 | 25 (≈ 53.9 µM) | 25 (≈ 53.9 µM) | 25 (≈ 53.9 µM) | 25 (≈ 53.9 µM) | 25 (≈ 53.9 µM) | 11 | 16 | 16 | 16 | 12.5 (≈ 26.9 µM) | > 100 | > 100 | 0 | > 100 | <10 | <10 | 6.25 (≈ 13.5 µM) | MIC [20]: 6.25 µg/mL (≈ 13.5 µM); MIC [21]: 6.25 µg/mL (≈ 13.5 µM); MIC [22]: 6.25 µg/mL (≈ 13.5 µM); diameter of the inhibition zone (DIZ) [23]: 16 mm |
| Cc1c(CCCNC(=O)CCc2cn(C)c3ccc(Cl)cc23)c2cc(OC(F)(F)F)ccc2n1C | 16 | 11 | 16 | 25 (≈ 49.4 µM) | 12.5 (≈ 24.7 µM) | 6.25 (≈ 12.4 µM) | 12.5 (≈ 24.7 µM) | 6.25 (≈ 12.4 µM) | <10 | 11 | <10 | 11 | 25 (≈ 49.4 µM) | > 100 | > 100 | <90 | 10 (≈ 19.8 µM) | <10 | 11 | 12.5 (≈ 24.7 µM) | MIC [25]: 1.25 µg/mL (≈ 2.47 µM); MIC [20]: 25 µg/mL (≈ 49.4 µM); MIC [21]: 12.5 µg/mL (≈ 24.7 µM); MIC [22]: 12.5 µg/mL (≈ 24.7 µM); diameter of the inhibition zone (DIZ) [23]: 11 mm |
